From patent US20090117083A1, “IMMUNOMODULATORY ALKALOIDS” (M N L PHARMA LIMITED, priority 2004, published 2009)

Key:
[1] = tested on: N-acetyl-β-D-glucosaminidase; assay: Glycosidase inhibition: N-acetyl-β-D-glucosaminidase; assay type: biochemical, Bovine; settings: 1 mg/ml
In short: (§1)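 Absorbance at 405 nm of released p-nitrophenol gives activity after a glycine pH 10.4 stop timed to the exponential phase. Incubations run at 20° C in citrate/phosphate buffer at optimum pH with 3.57 mM final p-nitrophenyl substrate.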

Naringinase = assay: Glycosidase inhibition: Naringinase; assay type: biochemical, Penecillium decumbens; settings: 1 mg/ml
In short: as §1

MCF-7 cells = assay: Effect on glycosylation of breast cancer cells (N-glycan HPLC); assay type: cell-based; settings: 0.75 mM, 62 and 86 hour time points
Experimental: MCF-7 cells (European Collection of Cell Cultures Ref. 86012803) were taken from liquid nitrogen stock, thawed at room temperature and transferred to 10 ml Dulbeccos Modified Eagle's Medium with Hams F12, 15 mM Hepes and L-glutamine (DMEM: Cambrex Cat. No. BE12-719F) supplemented with 10% v/v foetal calf serum (FCS: BioWest Labs Cat. No. S02755, Lot. No. S1800). The FCS was pre-filtered through a 0.2 μm sterile filter.
The cells were then centrifuged at 1,500 rpm in a Centaur bench-top centrifuge and the supernatant removed. The cells were reconstituted in fresh media and seeded into two T75 cm^3 Nunclon tissue culture flasks and allowed to settle overnight at 37° C. in a 5% CO2 incubator. The flasks were wrapped in cling film to prevent cross-contamination and the following day the media was changed to include the antibiotics penicillin and streptomycin as a precautionary measure against infection (at concentrations of 1 mg/cm^3 and 5 mg/cm^3, respectively). […]
The cells were harvested using a non-enzymatic method. At each of the time points the cells were viewed under the inverted light microscope and the morphology evaluated. […] The number of cells was then counted in a haemocytometer and cell viability evaluated by mixing 0.1 cm^3 of each cell suspension with a drop of trypan blue solution. […]
Evaluated using the BioRad protein assay according to the manufacturer's instructions. […]

dendritic cells = assay: Induction of IL-12 secretion in dendritic cells (ELISA); assay type: cell-based, BALB/c mice; settings: casuarine alone, absence of LPS; 1 μg/ml versus 40 μg/ml

OC[C@@H]1[C@@H](O)[C@H](O)[C@H]2[C@H](O)[C@@H](O)CN21 [casuarine (8)]
% inhibition, N-acetyl-β-gluc [1]: 14%
% inhibition, Naringinase (Naringinase): −2%
glycan synthesis and/or N-linked glycosylation in breast cancer cells (MCF-7 cells): can inhibit glycan synthesis and/or N-linked glycosylation
induction of IL-12 secretion, dose response (dendritic cells): higher at low doses than high
